The values that follow are results of earlier work, collected in patent publication US20260315500A1, “SOLID CANNABINOID COMPOSITION FOR PARENTERAL USE” (Bender Analytical Holding B.V., priority 2023, published 2026).

In brackets after ≈: the same amount, converted by molar mass.

For data set [1], the system named is neuronal and glial cells. Conditions: preclinical; functional, neuroimaging, histologic and biochemical studies.
For data set [2] the following is noted: 23° C.

With `C=C(C)[C@@H]1CCC(C)=C[C@H]1c1c(O)cc(CCCCC)cc1O` [Cannabidiol], the neuroprotective effects result in data set [1] is “protects neuronal and glial cells, with a remarkable effect on preserving normal myelinogenesis”.

In the case of `CCCCCc1cc(O)c2c(c1)OC(C)(C)[C@@H]1CCC(C)=C[C@@H]21` [Tetrahydrocannabinol (THC), Tetrahydrocannabinol], the water solubility in data set [2] is 2.8 µg/mL (≈ 8.9 µM).
